Where only a bound is given, the exact number is not on record here.

The values that follow come from ChEMBL document CHEMBL4364331, “Identification of CB1 Receptor Allosteric Sites Using Force-Biased MMC Simulated Annealing and Validation by Structure-Activity Relationship Studies” (ACS Med Chem Lett, 2019).

The target in assay [1] is T1, Cannabinoid receptor 1 (Homo sapiens, UniProt P21554). The experiment in a line: Positive allosteric modulatory activity at human CB1R expressed in CHO-K1 cells assessed as CP55940-induced cAMP level by hit-hunter cAMP assay. In kind it is functional, cell-based. Background: cAMP levels reflect the balance of adenylyl cyclase and phosphodiesterase activity.
T1 sequence (P21554 whole entry): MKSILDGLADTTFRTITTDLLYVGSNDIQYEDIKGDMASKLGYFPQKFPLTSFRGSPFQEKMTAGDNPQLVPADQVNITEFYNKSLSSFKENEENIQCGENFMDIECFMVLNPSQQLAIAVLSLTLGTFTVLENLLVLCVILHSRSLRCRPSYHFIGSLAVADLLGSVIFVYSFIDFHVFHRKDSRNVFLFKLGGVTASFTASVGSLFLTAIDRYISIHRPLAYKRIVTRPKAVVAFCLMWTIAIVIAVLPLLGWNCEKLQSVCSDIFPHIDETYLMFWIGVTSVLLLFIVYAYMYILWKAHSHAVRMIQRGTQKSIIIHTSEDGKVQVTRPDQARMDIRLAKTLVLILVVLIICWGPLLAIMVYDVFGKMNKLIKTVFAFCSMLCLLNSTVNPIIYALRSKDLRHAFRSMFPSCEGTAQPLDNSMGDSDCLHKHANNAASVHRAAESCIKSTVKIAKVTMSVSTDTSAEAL
Assay [2] addresses T1, Cannabinoid receptor 1. The experiment in a line: Positive allosteric modulatory activity at human CB1R expressed in CHO-K1 cells assessed as CP55940-induced cAMP level by hit-hunter cAMP assay relative to control. In kind it is functional, cell-based.
Assay [3] addresses Cannabinoid receptor 1 (Mus musculus, UniProt P47746). In words: Positive allosteric modulatory activity at mouse CB1R expressed in CHO-K1 cells assessed as CP55940-induced beta-arrestin2 recruitment by pathhunter beta-arrestin assay. In kind it is cell-based. Background: Recruitment of arrestin is a read-out of receptor activation apart from second messengers.
Assay [4] has as its target Cannabinoid receptor 1 (Mus musculus) (UniProt P47746). The experiment in a line: Positive allosteric modulatory activity at mouse CB1R expressed in CHO-K1 cells assessed as CP55940-induced beta-arrestin2 recruitment by pathhunter beta-arrestin assay relative to control. Format: cell-based.

Sequence of Cannabinoid receptor 1 (Mus musculus, UniProt P47746) (P47746 whole entry): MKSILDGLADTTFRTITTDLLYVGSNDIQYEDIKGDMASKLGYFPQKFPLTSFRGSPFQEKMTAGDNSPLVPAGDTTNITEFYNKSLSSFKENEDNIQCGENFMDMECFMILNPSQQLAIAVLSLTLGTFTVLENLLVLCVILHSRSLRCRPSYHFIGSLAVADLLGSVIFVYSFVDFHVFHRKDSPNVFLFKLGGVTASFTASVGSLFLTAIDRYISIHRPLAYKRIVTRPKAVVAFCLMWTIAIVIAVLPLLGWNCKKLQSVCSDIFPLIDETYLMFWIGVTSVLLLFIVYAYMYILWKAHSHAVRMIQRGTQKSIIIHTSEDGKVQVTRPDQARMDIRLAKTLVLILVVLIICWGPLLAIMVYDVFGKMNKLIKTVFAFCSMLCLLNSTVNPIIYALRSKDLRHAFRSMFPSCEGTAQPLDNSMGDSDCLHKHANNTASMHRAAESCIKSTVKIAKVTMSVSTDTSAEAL
Sequence of Cannabinoid receptor 1 (Mus musculus) (P47746 whole entry): as above

As a reminder, the EC50 is the concentration giving half of the maximal effect. By Emax is commonly meant the maximal effect, on the per cent scale that the assay sets. With `O=[N+]([O-])CC(c1ccccc1)c1cn(-c2ccccc2)c2ccccc12` (stereo unspecified), the EC50 at Cannabinoid receptor 1 [1] and on Cannabinoid receptor 1 [3] was > 10 µM throughout. In addition, the Emax (on Cannabinoid receptor 1 [2]; in assay [4]) was 0% throughout.

For `O=[N+]([O-])CC(c1ccccc1)c1c[nH]c2ccccc12` (stereo unspecified), the EC50 at Cannabinoid receptor 1 [1] and at Cannabinoid receptor 1 [3] was > 10 µM each time. Further, the Emax (on Cannabinoid receptor 1 [2]; in assay [4]) was 0% each time.

Consider `O=[N+]([O-])CCc1c(-c2ccccc2)[nH]c2ccccc12`, for which the EC50 on Cannabinoid receptor 1 [1] was 5.53 µM; on Cannabinoid receptor 1 [3] it was > 10 µM. Further, the Emax was found to be 85% at Cannabinoid receptor 1 [2] and 0% in assay [4].

Consider `Cn1c(-c2ccccc2)c(C(C[N+](=O)[O-])c2ccccc2)c2ccccc21` (stereo unspecified), for which the EC50 at Cannabinoid receptor 1 [1] and at Cannabinoid receptor 1 [3] was > 10 µM in each case. Further, the Emax (on Cannabinoid receptor 1 [2]; in assay [4]) was 0% each time.

In the case of `O=[N+]([O-])CC(c1ccccc1)c1c(C2CCCCC2)[nH]c2ccccc12` (stereo unspecified), the EC50 was 0.992 µM at Cannabinoid receptor 1 [1] and > 10 µM at Cannabinoid receptor 1 [3]. The Emax at Cannabinoid receptor 1 [2] amounted to 121%; in assay [4], 0%.

On to `O=[N+]([O-])CC(c1ccccc1)c1cc[nH]c1-c1ccccc1` (stereo unspecified), for which the EC50 on Cannabinoid receptor 1 [1] and at Cannabinoid receptor 1 [3] was > 10 µM throughout. Besides, the Emax (at Cannabinoid receptor 1 [2]; in assay [4]) was 0% in each case.

For `NCC(c1ccccc1)c1c(-c2ccccc2)[nH]c2ccccc12` (stereo unspecified), the EC50 on Cannabinoid receptor 1 [1] and on Cannabinoid receptor 1 [3] was > 10 µM each time. For the same compound, the Emax (on Cannabinoid receptor 1 [2]; in assay [4]) was 12% in each case.

`O=[N+]([O-])CC(c1ccccc1)c1c(-c2ccccc2)[nH]c2ccccc12` (stereo unspecified): the Emax at Cannabinoid receptor 1 [2] worked out at 110%; in assay [4], 46%. At Cannabinoid receptor 1 [3], the EC50 turned out to be 0.94 µM.
